Test results: US20130130992A1, “DIPEPTIDE DERIVATIVE FOR THE TREATMENT OF CANCER” (ONCOTEST GMBH, priority 2010, published 2013)
pIC50: −log10 of the molar value. Where “and” joins values, the source holds several entries; their conditions need not be identical. Identical values can stand only once. Like-named read-outs stand apart in the source and are kept apart here.

What was measured:
Type in all cases: cell-based
LXFL 529L = test: Monolayer propidium iodide assay, LXFL 529L; settings: Homo sapiens, 96 h, Lung, 4 days of treatment
Excerpt: (§1) Oncotest GmbH, Germany's proprietary tumor cell line panel comprises 40 cell lines. These cell lines were derived from 15 different tumor histotypes, each represented by 1 to 6 different cell lines. Cell lines were established from cancer of the bladder (3), colon (4), head and neck (1), lung (6), breast (3), pancreas (3), prostate (4), ovary (2), kidney (3), liver (1), stomach (1) and the uteri body (1), as well as from melanoma (3), sarcoma (2) and pleuramesothelioma (3). Out of these 40 cell lines, 24 cell lines were established at Oncotest, from patient-derived tumor xenografts. […]
(§2) Stock solutions of the compound of formula (1) (3.3 mM in DMSO) were prepared and stored in small aliquots (200 μl) at −20° C. […] Each concentration was evaluated in triplicate. […]
(§3) Cells were plated in 96-well flat-bottom microtiter plates at a cell density of 4,000 to 20,000 cells/well. […] After an incubation period of 1-2 hours at room temperature, fluorescence (FU) was measured using the Cytofluor 4000 microplate reader (excitation λ=530 nm, emission λ=620 nm) to quantify the amount of attached viable cells. […] Based on the T/C values, relative IC50 values were determined by non-linear regression (log [conc. of inhibitor] versus response (% T/C)) using the GraphPad Prism® analysis software (Prism 5 for Windows, version 5.01, GraphPad Software Inc., CA). […]

MEXF 276L = test: Monolayer propidium iodide assay, MEXF 276L; settings: Homo sapiens, MEXF276L, 96 h, Melanoma, 4 days of treatment
Excerpt: as §1, §2, §3

PXF 698L = test: Monolayer propidium iodide assay, PXF 698L; settings: Homo sapiens, 96 h, Pleuramesothelioma, 4 days of treatment
Excerpt: as §1, §2, §3

GXF 251 L = test: Monolayer propidium iodide assay, GXF 251 L; settings: Homo sapiens, 96 h, Gastric, 4 days of treatment
Excerpt: as §1, §2, §3

BXF 1218L = test: Monolayer propidium iodide assay, BXF 1218L; settings: Homo sapiens, 96 h, Bladder, 4 days of treatment
Excerpt: as §1, §2, §3

HNXF CAL 27 = test: Monolayer propidium iodide assay, HNXF CAL 27; settings: Homo sapiens, 96 h; HNXF CAL 27, Head and Neck; 4 days of treatment
Excerpt: as §1, §2, §3

CXF HT 29 = test: Monolayer propidium iodide assay, CXF HT 29; settings: Homo sapiens, 96 h; CXF HT 29, Colon; 4 days of treatment
Excerpt: as §1, §2, §3

CXF RKO = test: Monolayer propidium iodide assay, CXF RKO; settings: Homo sapiens, 96 h, Colon, 4 days of treatment
Excerpt: as §1, §2, §3

PXF 1118L = test: Monolayer propidium iodide assay, PXF 1118L; settings: Homo sapiens, 96 h, Pleuramesothelioma, 4 days of treatment
Excerpt: as §1, §2, §3

MAXF 401NL = test: Monolayer propidium iodide assay, MAXF 401NL; settings: Homo sapiens, 96 h, Mammary, 4 days of treatment
Excerpt: as §1, §2, §3

CXF 269L = test: Monolayer propidium iodide assay, CXF 269L; settings: Homo sapiens, 96 h, Colon, 4 days of treatment
Excerpt: as §1, §2, §3

MAXF MCF 7 = test: Monolayer propidium iodide assay, MAXF MCF 7; settings: Homo sapiens, MCF7, 96 h; MAXF MCF 7, Mammary; 4 days of treatment
Excerpt: as §1, §2, §3

MEXF 1341L = test: Monolayer propidium iodide assay, MEXF 1341L; settings: Homo sapiens, 96 h, Melanoma, 4 days of treatment
Excerpt: as §1, §2, §3

LIXF 575L = test: Monolayer propidium iodide assay, LIXF 575L; settings: Homo sapiens, 96 h, Liver, 4 days of treatment
Excerpt: as §1, §2, §3

[1] = tested on: panel of 40 human tumor cell lines; test: Monolayer propidium iodide assay, whole panel; settings: for pIC50: Homo sapiens
Excerpt: Oncotest GmbH, Germany's proprietary tumor cell line panel comprises 40 cell lines. These cell lines were derived from 15 different tumor histotypes, each represented by 1 to 6 different cell lines. Cell lines were established from cancer of the bladder (3), colon (4), head and neck (1), lung (6), breast (3), pancreas (3), prostate (4), ovary (2), kidney (3), liver (1), stomach (1) and the uteri body (1), as well as from melanoma (3), sarcoma (2) and pleuramesothelioma (3). Out of these 40 cell lines, 24 cell lines were established at Oncotest, from patient-derived tumor xenografts. The other 16 cell lines were either provided by the NCl (Bethesda; MD, USA) or were purchased from ATCC (Rockville, Md., USA) or DSMZ (Braunschweig, Germany).
Cell lines were routinely passaged once or twice weekly and maintained in culture for upto 20 passages. All the cells were grown at 37° C. in a humidified atmosphere with 5% (Carbon Dioxide) CO2 in RPMI 1640 medium supplemented with 10% (v/v) fetal calf serum (FCS) and 0.1 mg/ml gentamicin (medium and all other components from PAA, Colbe, Germany). Authenticity of all cell lines was proven by STR (short tandem repeat) analysis, a PCR based DNA-fingerprinting methodology.
Stock solutions of the compound of formula (1) (3.3 mM in DMSO) were prepared and stored in small aliquots (200 μl) at −20° C. An aliquot of the stock solution was thawed on the day of use and stored at room temperature prior to and during dosing. The subsequent dilutions were done with complete RPMI 1640 cell culture medium as follows: the stock solution was diluted 1:22 followed by serial dilutions finally resulting in a (compared to the test concentration) 15-fold higher concentration. For the final dilution step (1:15), 10 μl/well of the solution was directly added to 140 μl/well culture medium. Compound of formula (1) [also referred as test compound] was tested at 0.00032, 0.001, 0.0032, 0.01, 0.032, 0.1, 0.32, 1, 3.2 and 10 μM. Each concentration was evaluated in triplicate.
A modified Propidium Iodide assay was used to assess the effect of the compound of formula (1) on the growth of the human tumor cell lines and was designed as in reference, Anti-cancer Drugs, 6, 522-532, (1995), the disclosure of which is incorporated by reference for the teaching of the assay.
Cells were plated in 96-well flat-bottom microtiter plates at a cell density of 4,000 to 20,000 cells/well. After a 24 hr recovery period to allow the cells to resume exponential growth, the compound of formula (1) was applied at 10 concentrations in half-log increments in triplicates and treatment continued for 4 days. After 4 days of treatment, cells were next washed with 200 μl phosphate buffer solution (PBS) to remove dead cells, then 200 μl of a solution containing 7 μg/ml propidium iodide (PI) and 0.1% (v/v) Triton X-100 were added to the wells. After an incubation period of 1-2 hours at room temperature, fluorescence (FU) was measured using the Cytofluor 4000 microplate reader (excitation λ=530 nm, emission λ=620 nm) to quantify the amount of attached viable cells. Pharmacological effects on cell proliferation and survival were expressed as Test/Control×100 (% T/C) values, with T and C representing the fluorescence read-outs for wells with and without test compound, respectively, i.e. T/C represents the ratio of viable cell numbers following incubation of cell line with and without test compound. Based on the T/C values, relative IC50 values were determined by non-linear regression (log [conc. of inhibitor] versus response (% T/C)) using the GraphPad Prism® analysis software (Prism 5 for Windows, version 5.01, GraphPad Software Inc., CA). For calculation of mean IC50 values over the 40 cell lines as tested, the geometric mean was selected. If Graph Pad Prism could not calculate reliable IC50 values by non-linear regression, the IC50 value was estimated by visual inspection of the concentration-effect curve.

PRXF LNCAP = test: Monolayer propidium iodide assay, PRXF LNCAP; settings: Homo sapiens, 96 h, Prostate, 4 days of treatment
Excerpt: as §1, §2, §3

Molecule `CCCC1CCCCCC(O)CC(=O)NC2CSSCC(NC2=O)C(=O)O1` (centres unmarked) [compound of formula (1)] has a pIC50 (LXFL 529L) of 7.30, a pIC50 (MEXF 276L) of 7.05 and a pIC50 (PXF 698L) of 6.75. It also gave a pIC50 (GXF 251 L) of 7.03, a pIC50 (BXF 1218L) of 7.34 and a pIC50 (HNXF CAL 27) of 7.41. It also gave a pIC50 (CXF HT 29) of 6.86, a pIC50 (CXF RKO) of 7.13 and a pIC50 (PXF 1118L) of 7.27. The pIC50 (MAXF 401NL) was 7.19, the pIC50 (CXF 269L) was 7.26 and the pIC50 (MAXF MCF 7) was 6.56. For the same molecule, the pIC50 (MEXF 1341L) was 6.99, the pIC50 (LIXF 575L) was 6.53 and the “antitumor activity in all cell lines as tested” value ([1]; 0.00032 to 10 μM, 40 cell lines, 15 histotypes) was “concentration-dependent antitumor activity”. For the same molecule, the “Tumor selectivity: number of cell lines with individual IC50 < mean IC50” value (shortened to “Tumor selectivity: number of cell lines”) ([1]; Bladder) was 2 out of 3 and 2/3, the “Tumor selectivity: number of cell lines” value ([1]; Breast) was 1/3 and the “Tumor selectivity: number of cell lines” value ([1]; Colon) was 3/4. For the same molecule, the pIC50 ([1]; 3/3 pancreatic tumor cell lines, read-out: individual IC50, pancreatic tumor cell lines) was > 7.22, the pIC50 ([1]; 5/6 cell lines derived from lung carcinoma, read-out: individual IC50, lung carcinoma cell lines) was > 7.30 and the pIC50 ([1]; geometric mean over the 40 cell lines, read-out: Mean IC50) was 7.05. For the same molecule, the pIC50 ([1]; upper bound for every cell line of the panel, read-out: IC50 achieved for all the 40 cell lines) was > 6.48, the “Tumor selectivity: number of cell lines” value ([1]; Kidney) was 0/3 and the “Tumor selectivity: number of cell lines” value ([1]; Lung) was 5/6. For the same molecule, the “Tumor selectivity: number of cell lines” value ([1]; Melanoma) was 0/3, the “Tumor selectivity: number of cell lines” value ([1]; Pancreas) was 3/3 and the “Tumor selectivity: number of cell lines” value ([1]; Pleurameso) was 1/3. For the same molecule, the “Tumor selectivity: number of cell lines” value ([1]; Prostate) was 2/4 and the pIC50 (PRXF LNCAP) was 6.91.
